Assays:
[1] = test system: dorsal root ganglion neurons; assay: Whole-cell patch clamp of acutely isolated dorsal root ganglion neurons; format: cell-based, rat
From the text: Dorsal root ganglion neurons from all spinal levels were removed from postnatal day 12 to 20 Sprague Dawley rats and the nerve roots trimmed. Calcium- and magnesium-free (CMF) Hank's solution contained (in mM): 136.9 sodium chloride, 5.4 potassium chloride, 0.34 dibasic sodium orthophosphate, 0.44 monopotassium phosphate, 5.6 glucose, 5 4-(2-hydroxyethyl)-1-piperazineethanesulfonic acid, 0.005% phenol red, pH 7.4. CMF Hank's was used throughout the isolation and enzymatic treatments. The isolated ganglia were treated for 20 minutes at 37°C with 20 U/ml of papain (Worthington Biochemical, Lakewood, NJ) and 5 mM cysteine. The ganglia were then transferred to CMF Hank's with 3 mg/ml collagenase (type I; Worthington) and 4 mg/ml dispase (neutral type II; Roche Applied Science, Indianapolis, IN) for 20 minutes at 37°C. Individual neurons were dispersed by trituration through a fire-polished glass Pasteur pipette in 3 ml of media containing DMEM, 5% horse serum, 10% fetal bovine serum, 1% penicillin/streptomycin, and 100 ng/ml Nerve Growth Factor (7S subunit; Invitrogen). The neurons were preplated in tissue culture-treated Petri dishes for 1 hour when used for electrophysiology (3 hours for calcium imaging), and then plated on poly-L-lysine (1 mg/ml)-coated glass coverslips. Dorsal root ganglion neurons were allowed to settle for 1–2 hours at 37°C before patching or imaging over the next 6 hours.
Electrophysiological experiments were performed using the whole-cell patch-clamp technique at room temperature. Modified Ringer's solution with low chloride and nominal calcium contained (in mM): 130 sodium hydroxide, 5 potassium chloride, 1 magnesium chloride, 10 sodium 4-(2-hydroxyethyl)-1-piperazineethanesulfonic acid, 10 2-(N-morpholino)ethanesulfonic acid, and 20 glucose (pH 7.4; 310 milli-osmolar). […] 2 mM calcium chloride was included in the external solution where noted. To activate TRPV1, the modified Ringer's solution was made at pH 5 (low pH solution) and the chloride concentration was kept to a minimum to prevent contamination of the TRPV1 currents with acid-activated chloride currents. For recordings from heterologously expressing cells, the internal pipette solution contained (in mM): 125 cesium-Methanesulfonate, 10 cesium (1.2-bis(o-aminophenoxy)ethane-N,N,N',N'-tetraacetic acid, 8 sodium chloride, 4 magnesium adenosine triphosphate, and 10 HEPES (pH 7.2; 290 mOSM; nominal free calcium concentrations). For TRPA1 and dorsal root ganglion recordings, the internal pipette solution contained (in mM): 110 cesium-Methanesulfonate, 0.5 cesium4BAPTA, 8 sodium chloride, 0.2 calcium chloride, 4 magnesium-ATP, 4 sodium-GTP, and 10 4-(2-hydroxyethyl)-1-piperazineethanesulfonic acid (pH 7.2; 290 mOSM; 100 nM free calcium internal). MaxChelator was used to calculate the free calcium concentration (http://www.stanford.edu/cpatton/maxc.html).
Recordings were obtained using an Axopatch 200B amplifier, Digidata 1322A analog-to-digital converter, and pClamp 8.01 software (Molecular Devices, Union City, CA). Data were low-pass filtered at 2 kHz and digitized at 5 kHz. Borosilicate glass pipettes (World Precision Instruments, Sarasota, FL) were typically 3 MΩ pipette resistance after fire polishing. Cell capacitance was measured for each cell, and access resistance compensated to ∼80%. Recordings were begun ∼5 minutes after initial rupture to ensure initial steady state conditions. Current-voltage (I-V) relations were obtained using a ramp protocol. Voltage ramps (400 ms) from −100 to +40 or +100 mV were applied every 1–2 seconds and the holding potential was either −70 mV or 0 mV (see Figure Legends). A 40 ms step was added at the beginning and end of the ramp (i.e. at −100 mV, +40 mV or +100 mV). Liquid junction potentials were not corrected.

[2] = in humans; cited from earlier work
[3] = test system: Chicken TRPV1 (cTRPV1); assay: Whole-cell patch clamp of chicken TRPV1 expressed in HEK-293T cells; format: cell-based
Protocol: Transformed human embryonic kidney-293 (HEK-293T) cells were grown in Dulbecco's modified Eagle's medium (DMEM)+F-12 supplemented with 10% fetal calf serum, and 1% penicillin/streptomycin in 5% CO2 at 37°C. Cells grown to 90% confluence in 35 mm Petri dishes were transiently transfected with plasmid DNA encoding a TRP channel construct (1 µg). Rat TRPV1 (rTRPV1) was cloned into an enhanced green fluorescent protein-containing vector (pTracer-CMV2; Invitrogen, Carlsbad, CA). Chicken TRPV1 (cTRPV1), the chicken rat TRPV1 chimera (crcTRPV1), rat TRPV2 (rTRPV2), mouse TRPV3 (mTRPV3), mouse TRPV4 (mTRPV4), rat TRPM8 (rTRPM8), and rat TRPA1 (rTRPA1), were cloned into pcDNA3 and co-transfected with enhanced green fluorescent protein (0.1 µg) to follow expression. The cTRPV1 and crcTRPV1 clones were kindly provided by Dr. David Julius. Recordings were carried out 24–36 hours after transfection. Cells were split via trypsin EDTA, plated on glass coverslips at 5–10% confluence, and used 2–3 hours later.
Electrophysiological experiments were performed using the whole-cell patch-clamp technique at room temperature. […]
Recordings were obtained using an Axopatch 200B amplifier, Digidata 1322A analog-to-digital converter, and pClamp 8.01 software (Molecular Devices, Union City, CA). […] Cell capacitance was measured for each cell, and access resistance compensated to ∼80%. […]

In the case of CC(C)=CCCC(C)=CC=O [citral, 3,7-dimethyl-2,6-octadienal], the “Block of TRPV1-like currents evoked by capsaicin” value ([1]; 1 µM capsaicin) is reported as 94%, the “Effect on fast inward current (primarily voltage-gated sodium channels)” value ([1]; 1 mM citral) is reported as “partially blocked” and the “Increase of outward currents” value ([1]; 1 mM citral, n = 8) is reported as 2.7±0.5 fold. The “Capsaicin response recovered after citral washout” value ([1]; 5 minutes after washout, n = 8) was 3±1.5%, the “Potentiation of TRPV1-like current prior to inhibition” value ([1]; capsaicin activation, n = 17) was 1.1±0.03 fold and the “Initial (constitutive) outward current inhibited” value ([1]; citral at pH 5) was 79%. For the same compound, the “Block of TRPV1-like currents evoked by pH 5 solution” value ([1]; pH 5) was 100%, the “Potentiation of TRPV1-like current prior to inhibition” value ([1]; pH 5 activation, n = 20) was 1.5±0.1 fold and the “Concentration at which therapeutic effects have been attributed” value [2] was 1 to 100 µM. For the same compound, the “Activation of cTRPV1 current” value ([3]; n = 6) was “did not activate” and the “Effect on cTRPV1 currents activated by pH 5 solution” value ([3]; pH 5) was “reversibly inhibited”.

From PMC2346451 (PLoS ONE, 2008)
